# Patent US8906848B2, “Aureobasidin derivatives and methods of synthesis” (priority 2011, dated 2014)
# Like-named read-outs stand apart in the source and are kept apart here. Starred links: 1 amine or outer side, 2 acyl side, 3 side chain; linkers in the order of their positions; H or OH if unused. Non-standard residues stand in square brackets, D forms with d. Residues, ends and D or L forms follow the SMILES beside them. NMePhe(3-(3-pyridyl)) = CN[C@@H](Cc1cccc(-c2cccnc2)c1)C(=O)O; NMePhe(3-Ph) = CN[C@@H](Cc1cccc(-c2ccccc2)c1)C(=O)O; X2 = CN([C@@H](Cc1cccc(B(O)O)c1)C(=O)[*:2])[*:1]; NMePhe(3-Br) = CN[C@@H](Cc1cccc(Br)c1)C(=O)O; Phe(3-Br) = N[C@@H](Cc1cccc(Br)c1)C(=O)O; X1 = CC[C@@H](C)[C@@H](O[*:1])C(=O)[*:2]; NMeVal(β-OH) = CN[C@H](C(=O)O)C(C)(C)O; aIle = CC[C@@H](C)[C@H](N)C(=O)O; NMeV = CN[C@H](C(=O)O)C(C)C
# Key:
# [1] = Pharmacokinetic study in mice, oral gavage, plasma by HPLC-MS; assay type: in vivo; conditions: single 200 mg/kg oral gavage
# Method: Referring to FIG. 5, mice were administered a single 200 mg/kg bolus dose of 3-pyridyl-mPhe^4-AbA (diamonds) or AbA (squares), by oral gavage. Blood was collected a timed intervals after administration of the drug and analyzed for compound content by HPLC-MS.
# Candida albicans SC5413 = assay: Candidiasis model in immunosuppressed mice, mortality; assay type: in vivo
# Method: Referring to FIG. 6, Mice, immunosuppressed with cyclophosphamide, were inoculated with 8 log 10 CFU Candida albicans SC5413 and dosed (following inoculation) with 3-pyridyl-mPhe^4-AbA (or a control antibiotic) orally, BID, for four consecutive days. Efficacy was determined by enumerating mortality.
# [2] = system: Candida species, including C. albicans; conditions: virtually all Candida species; cited from earlier work
# [3] = animals and humans; cited from earlier work
# Aspergilli, A. fumigatus = conditions: most Aspergilli, most notably A. fumigatus; cited from earlier work
# C. albicans = assay: MIC, broth dilution CLSI M38-A2 with YPD medium (Table 2); assay type: cell-based
# Method: (§1) The activities of several exemplary compounds of the present invention were assayed according to the CLSI standard M38-A2 titled “Reference Method for Broth Dilution Antifungal Susceptibility Testing of Filamentous Fungi”. However, the RPMI-1640 broth is substituted for a YPD medium formulated according to the following steps: […]
# (§2) 1. Dissolve 10 g of BactoYeast extract in 500 ml water
# (§3) 2. Dissolve 20 g of BactoPeptone in the above solution
# (§4) 3. Dissolve 20 g Dextrose in the above solution* *Ordinary table sugar (sucrose) substituted for dextrose routinely.
# (§5) 4. q.s. to 1000 ml with water
# [4] = system: Cryptococcus species, including C. neoformans; conditions: most Cryptococcus species; cited from earlier work
# [5] = system: Trychophyton mentagrophytes 5278 (ATCC MYA-4439); assay: MIC, antifungal spectrum (Table 3); assay type: cell-based; conditions: at 96 hrs
# Method: as §1, §2, §3, §4, §5
# [6] = system: Fusarium oxysporum 0893 (ATCC48112); assay: MIC, antifungal spectrum (Table 3); assay type: cell-based; conditions: at 96 hr
# Method: as §1, §2, §3, §4, §5
# [7] = system: Trychophyton rubrum 5279 (ATCC MYA-4438); assay: MIC, antifungal spectrum (Table 3); assay type: cell-based; conditions: at 72 hrs
# Method: as §1, §2, §3, §4, §5
# [8] = system: Sporothrix schenkii 892 (ATCC14284); assay: MIC, antifungal spectrum (Table 3); assay type: cell-based; conditions: at 96 hrs
# Method: as §1, §2, §3, §4, §5
# A. fumigatus = assay: MIC, broth dilution CLSI M38-A2 with YPD medium (Table 2); assay type: cell-based; conditions: compound purity ~85%
# Method: as §1, §2, §3, §4, §5
# [9] = YPD medium, compound purity ~85%
compound,measurement,setting,value
"CCC(C)[C@@H]1NC(=O)[C@@H]2CCCN2C(=O)[C@H](Cc2ccccc2)N(C)C(=O)[C@H](Cc2ccccc2)NC(=O)[C@H](C(C)C)N(C)C(=O)[C@@H](C(C)CC)OC(=O)C(C(C)(C)O)N(C)C(=O)[C@H](CC(C)C)NC(=O)[C@H](C(C)C)N(C)C1=O (stereo in doubt) [AbA (native), Aureobasidin A]",plasma concentration trend at the end of the 12 hour experiment,[1],decreasing
same,ED50,"Candida albicans SC5413; cyclophosphamide-immunosuppressed mice, oral, BID, four consecutive days, mortality",about 25 mg/kg
same,efficacy against Candida species,[2],very efficacious
same,tolerability,[3],very well tolerated
same,activity towards Aspergilli,"Aspergilli, A. fumigatus",little activity
same,MIC for C. albicans,C. albicans; [9],<0.05 µg/mL
same,efficacy against Cryptococcus species,[4],efficacious
CC[C@@H](C)[C@@H]1NC(=O)[C@@H]2CCCN2C(=O)[C@H](Cc2cccc(-c3cccnc3)c2)N(C)C(=O)[C@H](Cc2ccccc2)NC(=O)[C@H](C(C)C)N(C)C(=O)[C@@H]([C@H](C)CC)OC(=O)[C@H](C(C)(C)O)N(C)C(=O)[C@H](CC(C)C)NC(=O)[C@H](C(C)C)N(C)C1=O [3-pyridyl-mPhe^4-AbA] (cyclo([X1][NMeV]F[NMePhe(3-(3-pyridyl))]P[aIle][NMeV]L[NMeVal(β-OH)])),bioavailability and/or clearance as compared to the native drug,[1],enhanced bioavailability and/or a slower clearance
same,plasma concentration trend at the end of the 12 hour experiment,[1],still be increasing
same,plasma concentrations compared with the same dose of native AbA,[1]; same vehicle,significantly higher plasma concentrations
same,MIC,[5],0.5 at 96 hrs μg/ml
same,MIC,[6],>64 at 96 hr μg/ml
same,MIC,[7],2 at 72 hrs μg/ml
same,MIC,[8],>64 at 96 hrs μg/ml
same,ED50 of native AbA relative to that of 3-pyridyl-mPhe^4-AbA,"Candida albicans SC5413; Candidiasis model, mice, oral BID four days",almost four times higher
same,MIC for C. albicans,C. albicans,<0.05 µg/mL
CC[C@@H](C)[C@@H]1NC(=O)[C@@H]2CCCN2C(=O)[C@H](Cc2cccc(B(O)O)c2)N(C)C(=O)[C@H](Cc2ccccc2)NC(=O)[C@H](C(C)C)N(C)C(=O)[C@@H]([C@H](C)CC)OC(=O)[C@H](C(C)(C)O)N(C)C(=O)[C@H](CC(C)C)NC(=O)[C@H](C(C)C)N(C)C1=O [B(OH)2-mPhe^4-AbA] (cyclo([X1][NMeV]F[X2]P[aIle][NMeV]L[NMeVal(β-OH)])),MIC for C. albicans,C. albicans,<0.05 µg/mL
CC[C@@H](C)[C@@H]1NC(=O)[C@@H]2CCCN2C(=O)[C@H](Cc2cccc(Br)c2)N(C)C(=O)[C@H](Cc2cccc(Br)c2)NC(=O)[C@H](C(C)C)N(C)C(=O)[C@@H]([C@H](C)CC)OC(=O)[C@H](C(C)(C)O)N(C)C(=O)[C@H](CC(C)C)NC(=O)[C@H](C(C)C)N(C)C1=O [Br-Phe^3-Br-mPhe^4-AbA] (cyclo([X1][NMeV][Phe(3-Br)][NMePhe(3-Br)]P[aIle][NMeV]L[NMeVal(β-OH)])),MIC for C. albicans,C. albicans,5 µg/mL
CC[C@@H](C)[C@@H]1NC(=O)[C@@H]2CCCN2C(=O)[C@H](Cc2cccc(-c3ccccc3)c2)N(C)C(=O)[C@H](Cc2ccccc2)NC(=O)[C@H](C(C)C)N(C)C(=O)[C@@H]([C@H](C)CC)OC(=O)[C@H](C(C)(C)O)N(C)C(=O)[C@H](CC(C)C)NC(=O)[C@H](C(C)C)N(C)C1=O [Phenyl-mPhe^4-AbA] (cyclo([X1][NMeV]F[NMePhe(3-Ph)]P[aIle][NMeV]L[NMeVal(β-OH)])),MIC for C. albicans,C. albicans,<0.05 µg/mL
Boronate-mPhe^4-AbA,MIC for A. fumigatus,A. fumigatus,10 µg/mL
same,MIC for C. albicans,C. albicans; [9],<0.5 µg/mL
Br-mPhe^4-AbA,MIC for A. fumigatus,A. fumigatus,2.5 µg/mL
same,MIC for C. albicans,C. albicans; [9],0.031 µg/mL
I-mPhe^4-AbA,MIC for A. fumigatus,A. fumigatus,>5 µg/mL
same,MIC for C. albicans,C. albicans; [9],2.5 µg/mL
MeO-φ-mPhe^4-AbA,MIC for C. albicans,C. albicans; [9],5 µg/mL
